The values below come from article PMC12371487, “Phenylalkyl Acetophenones and Anacardic Acids from Knema oblongifolia with Synthetic Analogues as Anti-infectives and Antibacterial Agents” (ACS Bio & Med Chem Au, 2025).

Converted amounts (≈) assume the structure as drawn. “And” between values parts separate entries of the source, which are not always exact repeats. Identical values can stand only once. Like-named read-outs stand apart in the source and are kept apart here.

Type in all cases: cell-based
Experiment [1] relates to Mycobacterium marinum (Mm) in infection of Dictyostelium discoideum. Description: Dd-Mm infection assay: intracellular Mm growth (luminescence). The note with it: Mm inside Dd, luminescence AUC over 72 h at 25 °C; 6-concentration curve, top 100 μM, 1:3 steps; IC50 interpolated. As for the experimental part: (§1) Plant extracts, fractions, or isolated compounds were stored at −20 °C and wrapped in aluminum foil if necessary. All manipulations with extracts, fractions, or compounds were performed under a sterile hood. Extracts, fractions, and compounds were resuspended throughout in DMSO to best solubilize extracts with diverse constituents. Extracts, fractions, or compounds were added to the assay plate in a 1:100 dilution. Assay solutions of extracts, fractions, and compounds were prepared in 96-well plates, stored at −20 °C, and thawed before the experiment at room temperature or warmer with or without shaking/vortexing to obtain a clear assay solution. Extracts were tested at 25 μg/mL and purified compounds in a dose–response curve of 6 concentrations with 100 μM being the top concentration and a 1:3 dilution step between each testing concentration. Since fractions were not weighed individually, the injection mass was used to calculate an average mass per fraction and thus a nominal mass concentration. Fractions were tested at a nominal concentration of 10 μg/mL.
(§2) As described in Nitschke et al. and Mottet et al., Dd Ax2(ka) expressing mCherry from the act5 chromosomal locus was infected with Mm M strain expressing the lux operon (luxCDABE) , by spinoculation.
(§3) Briefly, the day before the experiment, Mm was cultivated in 7H9 broth (Becton Dickinson, Difco Middlebrook 7H9) supplemented with 10% OADC (Becton Dickinson) and 0.05% tyloxapol (Sigma-Aldrich) and 50 μg/mL kanamycin at 32 °C overnight with continuous shaking. Additionally, the day before the experiment, 10^7 amoebae were plated in HL5-C in a 10 cm Petri dish (Falcon). On the day of the experiment, a volume of the Mm culture corresponding to a multiplicity of infection of 25 with respect to the number of amoebae in the Petri dish was added to the semiconfluent amoebae monolayer. Subsequently, the Petri dishes were centrifuged twice at 500g, as described in Mottet et al. To remove extracellular bacteria, dishes were rinsed with fresh HL5-C, and the infected cell population was resuspended in HL5-C with 5 U/mL penicillin and 5 μg/mL streptomycin (Gibco) to inhibit the extracellular growth of bacteria during the course of the experiment.
(§4) For testing fractions and purified compounds, 20 μL of infected cell suspension was plated into each well of a 384-well plate (Interchim FP-BA8240) to an effective cell number of 1 × 10^4 cells per well. Fractions or compounds including a vehicle control (0.3% DMSO final concentration) and a positive control (rifabutin, 10 μM final concentration) were added using an electronic multipipette (Sartorius). Subsequently, the well plates were sealed with a gas impermeable membrane (H769.1, Carl Roth), briefly centrifuged, and intracellular bacterial growth was monitored using an Agilent BioTek H1 plate reader and an Agilent BioTek BioStack plate stacker by recording luminescence over 72 h at 25 °C with readings taken every hour. Fluorescence was also recorded to monitor amoeba growth.
(§5) For both assays, growth curves were obtained by measuring the luminescence and fluorescence as a proxy for bacterial growth and host growth, respectively, for 72 h with time-points taken every hour. The “normalized residual growth” was computed by calculating the area under the curve (AUC, trapezoid method) and normalizing it to the vehicle control (0.3% DMSO, set at 1) and a baseline curve (set at 0). The baseline curve was calculated by taking the median of the first measurement of all wells in a plate and extrapolating it over the complete time course. The threshold for hit detection was arbitrarily fixed at a cutoff of normalized residual growth ≤0.5. Normalized values were averaged over technical and biological replicates (all experiments on isolated compounds have at least n = 3 and N = 3, whereas the primary extract screening and microfractions testing had values of n = 1 and N = 3). […]

The subject of experiment [2] is Dictyostelium discoideum (Dd) in infection. The experiment can be described thus: Dd-Mm infection assay: host amoeba growth (fluorescence). To be noted: infected Dd, fluorescence AUC over 72 h at 25 °C, 6-concentration curve, top 100 μM, 1:3 steps, IC50 interpolated. As for the experimental part: as §1, §2, §3, §4, §5
The subject of experiment [3] is Mycobacterium marinum (Mm) in broth. The experiment can be described thus: Mm growth in broth (antibiotic assay, luminescence). To be noted: 72 h; for IC50: read-out: IC50 on Mm in broth. As for the experimental part: as §1, with “Extracts, fractions, and compounds were resuspended throughout in DMSO to best solubilize extracts with diverse constituents.” left out
For testing bacteria in broth, the preculture was diluted to a bacterial density of 3.75 × 10^5 bacteria per mL in 7H9 medium. Plating bacteria and compounds or fractions was performed analogously to the infection assay described above. Bacteria growth was monitored with the Agilent BioTek H1 plate reader by recording luminescence at 32 °C.
For both assays, growth curves were obtained by measuring the luminescence and fluorescence as a proxy for bacterial growth and host growth, respectively, for 72 h with time-points taken every hour. The “normalized residual growth” was computed by calculating the area under the curve (AUC, trapezoid method) and normalizing it to the vehicle control (0.3% DMSO, set at 1) and a baseline curve (set at 0). The baseline curve was calculated by taking the median of the first measurement of all wells in a plate and extrapolating it over the complete time course. The threshold for hit detection was arbitrarily fixed at a cutoff of normalized residual growth ≤0.5.
This procedure was also applied to screening extracts with slight modifications. The day before the experiment we preplated 10 μL of HL5-C using a dispenser (Thermo Multidrop), subsequently we preplated 2.2 μL of dissolved extracts from 96-well plates into quadrants 1, 2, and 3 of 384-well plates, whereas quadrant 4 was used for positive and vehicle controls. Preplating of extracts was performed using a liquid handler (Agilent Bravo). In total, 24 extract plates were distributed in triplicate into […] 384-well plates, amounting to 24 assay plates. The prepared plates were sealed and stored at 4 °C overnight. On the day of the experiment, nine 10 cm Petri dishes were infected (as described before) and grouped into three pools. The cell suspension was adjusted to 10^6 cells/mL, and 10 μL was plated into the 24 assay plates, resulting in 10^4 cells per well, as used for conventional infection experiments. Plates were sealed and placed in the plate stacker that supplied the plate reader. The same procedure was used to screen the same extracts on Mm in a broth. For both assays, the first time points and a time point after 72 h were recorded. Subsequently, we normalized the end point, first with the median of the full assay plate at the first time point and second with the end point of the vehicle controls in the respective assay plate.
For IC50 estimation, we used a rudimentary approach of interpolating the sample concentration between the two normalized residual growth values, which were closest to a value of 0.5.

Experiment [4] concerns Staphylococcus aureus (Sa) Newman strain. The experiment can be described thus: MIC determination in Mueller-Hinton broth (CLSI) on Sa. To be noted: for MIC: Staphylococcus aureus, NEWMAN, read-out: MIC on Sa. As for the experimental part:
MICs were determined in Mueller–Hinton (MH) broth according to CLSI guidelines and were repeated at least on three different occasions.
The Newman strain ofS. aureus and the UCBPP-PA14 strain ofP. aeruginosa were used in this study.

Where [5] appears, read: Mm in 7H9 broth, luminescence at 32 °C, IC50 interpolated.

Turning to 2,4-Dihydroxychalcone [Compound 14], the values for the IC50 in experiment [1], in experiment [2] and in experiment [3] (setting [5]) were 2470 nM, 7.41 µM and 66.7 µM, respectively. For the same compound, the “MIC on Sa” value in experiment [4] (Mueller-Hinton broth, CLSI) was 32 mg·L–1.
With “3,5-Dichloro-2,4-dihydroxychalcone [Compound 23]”, the figures for the IC50 in experiment [1], in experiment [2] and in experiment [3] (setting [5]) were 1760 nM, 1.76 µM and 47.6 µM, respectively. Moreover, the “MIC on Sa” value in experiment [4] (Mueller-Hinton broth, CLSI) is 4 μg·mL^–1 and 4 mg·L–1.
Turning to “3-Bromo-2,4-dihydroxychalcone [Compound 24]”, the IC50 came to 2470 nM in experiment [1] and 2.47 µM in experiment [2]. In addition, the “IC50 on Mm in broth” value in experiment [3] (setting [5]) was “not active”. In addition, the “MIC on Sa” value in experiment [4] (Mueller-Hinton broth, CLSI) is on record as 64 mg·L–1.
“3-Chloro-2,4-dihydroxychalcone [Compound 21]”: the figures for the IC50 in experiment [1], in experiment [2] and in experiment [3] (setting [5]) were 1760 nM, 0.59 µM and 47.6 µM, respectively. Besides, in experiment [4] (Mueller-Hinton broth, CLSI), the “MIC on Sa” value is listed as 32–64 mg·L–1.
For “5-Bromo-2,4-dihydroxychalcone [Compound 25]” the same measures were 820 nM, 0.82 µM, 66.7 µM and “not active”.
On to “5-Chloro-2,4-dihydroxychalcone [Compound 22]”, for which the IC50 turned out to be 1760 nM in experiment [1], 1.76 µM in experiment [2] and 47.6 µM in experiment [3] (setting [5]). Besides, the “MIC on Sa” value in experiment [4] (Mueller-Hinton broth, CLSI) is 32 μg·mL^–1 and 32 mg·L–1.
`CC(=O)c1c(O)cc(O)cc1CCCCc1ccc2c(c1)OCO2` [Compound 1, Knemolone A]: the results for the IC50 in experiment [1] and in experiment [2] (Dictyostelium discoideum) were 22200 nM and 22.2 µM, respectively. Besides, the “IC50 on Mm in broth” value in experiment [3] (setting [5]) is “Not active”. In addition, the “MIC on Sa” value in experiment [4] (Mueller-Hinton broth, CLSI) is recorded as “Not active”.
On to `CC(=O)c1c(O)cc(O)cc1CCCCc1ccccc1` [Compound 2, Knemolone B], for which the IC50 in experiment [1] came out at 22200 nM; in experiment [2] (Dictyostelium discoideum) it was 22.2 µM. Moreover, in experiment [3] (setting [5]), the “IC50 on Mm in broth” value was “Not active”. In experiment [4] (Mueller-Hinton broth, CLSI), the MIC was 32 µg/mL (≈ 113 µM).
Taken in the same sequence, the figures for `O=C(O)c1c(O)cccc1CCCCc1ccc2c(c1)OCO2` [Compound 3, Knemolic acid A] were 66700 nM, 66.7 µM, “Not active” and 8 µg/mL (≈ 25.5 µM).
The compound `CC(=O)c1c(O)cc(O)cc1CCCCCCc1ccccc1` [Compound 4, Knemolone C] had an IC50 in experiment [1] of 22200 nM. Moreover, in experiment [2] (Dictyostelium discoideum), the IC50 worked out at 22.2 µM. Moreover, in experiment [3] (setting [5]), the “IC50 on Mm in broth” value was “not active”. Moreover, in experiment [4] (Mueller-Hinton broth, CLSI), the “MIC on Sa” value was found to be 4 μg·mL^–1 and the MIC was 4 µg/mL (≈ 12.8 µM).
Turning to `CCCCCCCCCc1cc(O)cc(O)c1C(C)=O` [Compound 5, Knemolone D], the “IC50 on Mm in infection” value in experiment [1] is recorded as “Not active”. In addition, the IC50 in experiment [2] (Dictyostelium discoideum) is 22.2 µM. Besides, the “IC50 on Mm in broth” value in experiment [3] (setting [5]) is “Not active”. Also, the MIC in experiment [4] (Mueller-Hinton broth, CLSI) amounted to 2 µg/mL (≈ 7.18 µM).
Take `O=C(O)c1c(O)cccc1CCCCCCc1ccc2c(c1)OCO2` [Compound 6, Knemolic acid B]: the IC50 was determined as 7410 nM in experiment [1] and 7.41 µM in experiment [2] (Dictyostelium discoideum). Moreover, the “IC50 on Mm in broth” value in experiment [3] (setting [5]) is reported as “Not active”. Moreover, in experiment [4] (Mueller-Hinton broth, CLSI), the MIC turned out to be 8 µg/mL (≈ 23.4 µM).
Taken in the same sequence, the figures for `O=C(O)c1c(O)cccc1CCCCCCc1ccccc1` [Compound 7, Knemolic acid C] were 7410 nM, 7.41 µM, “not active” and 8 µg/mL (≈ 26.8 µM).
Taken in the same sequence, the figures for `CCCCCCCCCc1cccc(O)c1C(=O)O` [Compound 8, Khookerianic acid A] were 2470 nM, 2.47 µM, “not active” and 8 µg/mL (≈ 30.3 µM).
Taken in the same sequence, the figures for `O=C(O)c1c(O)cccc1CCCCCCCCc1ccc2c(c1)OCO2` [Compound 9, Kneglobularic acid B] were 7410 nM, 22.2 µM, “Not active” and 8 µg/mL (≈ 21.6 µM).
Turning to `CO[C@H]1/C=C/O[C@@]2(C)Oc3c(C)c(O)c4c(c3C2=O)C2=NC3(CCN(CC(C)C)CC3)NC2=C(NC(=O)/C(C)=C\C=C\[C@H](C)[C@H](O)[C@@H](C)[C@@H](O)[C@@H](C)[C@H](OC(C)=O)[C@@H]1C)C4=O` [rifabutin, reference compound], the IC50 stood at 200 nM in experiment [1] and 0.03 µM in experiment [3] (Mycobacterium marinum). Further, in experiment [2], the “IC50 on Dd in infection” value was “not active”.
As to `CN[C@H](CC(C)C)C(=O)N[C@H]1C(=O)N[C@@H](CC(N)=O)C(=O)N[C@H]2C(=O)N[C@H]3C(=O)N[C@H](C(=O)N[C@H](C(=O)O)c4cc(O)cc(O)c4-c4cc3ccc4O)[C@H](O)c3ccc(c(Cl)c3)Oc3cc2cc(c3O[C@@H]2O[C@H](CO)[C@@H](O)[C@H](O)[C@H]2O[C@H]2C[C@](C)(N)[C@H](O)[C@H](C)O2)Oc2ccc(cc2Cl)[C@H]1O` [vancomycin, reference compound], the MIC in experiment [4] is 1 µg/mL (≈ 0.69 µM).
